The compounds below were run against T1, human MDM2 (GST-hMDM2 aa 1-188), interaction with biotinylated-p53 (aa 1-83) (Homo sapiens, UniProt Q00987) (assay: Homogenous Time-Resolved Fluorescence Assay (HTRF1 assay), inhibition of HDM2-p53 interaction). Settings: 2.5 nM GST-hMDM2, 5 nM biotinylated-p53, 200 mM KF.
T1 construct: Amino acid residues 1-188 of human MDM2 were expressed; made in house; host or cells: Escherichia coli
T1 sequence (Q00987 1-188): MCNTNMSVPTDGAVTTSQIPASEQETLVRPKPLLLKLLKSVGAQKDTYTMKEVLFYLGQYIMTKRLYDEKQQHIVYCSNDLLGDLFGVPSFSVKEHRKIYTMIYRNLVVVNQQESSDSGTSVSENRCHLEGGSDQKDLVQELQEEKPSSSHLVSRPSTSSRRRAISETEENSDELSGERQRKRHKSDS
Type: binding
Protocol: Homogenous Time-Resolved Fluorescence Assay (HTRF1 Assay)
Residues 1-83 of human p53 were expressed as an amino-terminal AviTag™-TrxA-6xHis fusion protein (biotinylated p53) in E. coli. Each protein was purified from cell paste by affinity chromatography.
Specifically, 10 uL of GST-hMDM2 was incubated with 10 ul of diluted compound (various concentrations, serially diluted) in 10% DMSO for 20 minutes at room temperature. 20 uL of biotinylated-p53 was added to the GST-hMDM2+ compound mixture, and then incubated at room temperature for 60 min. 10 uL of detection buffer consisting of SA-XLent, anti-GST cryptate antibody and KF was added to GST-hMDM2, biotinylated-p53 and compound reaction and left at room temperature to reach equilibrium for >4 hrs. The final concentration of DMSO in the reaction was 2%. Time-resolved fluorescence readings were measured on a microplate multilabel reader. Percentage of inhibition was calculated relative to nutlin-3.
Work on `O=C(O)C[C@H]1O[C@H](c2cccc(Cl)c2)[C@@H](c2ccc(Cl)cc2)N(C2CCCC2)C1=O` [Example 15, 2-((2R,5R,6R)-6-(3-chlorophenyl)-5-(4-chlorophenyl)-4-cyclopentyl-3-oxomorpholin-2-yl)acetic acid] yielded an IC50 of 0.3 µM. `Cn1c([C@@H]2[C@@H](c3cccc(Cl)c3)O[C@@H](CC(=O)O)C(=O)N2CC2CC2)nc2ccccc21` (racemic) [Example 5, 2-((2S,5R,6R)-6-(3-Chlorophenyl)-4-(cyclopropylmethyl)-5-(1-methyl-1H-benzo[d]imidazol-2-yl)-3-oxomorpholin-2-yl)acetic acid and 2-((2R,5S,6S)-6-(3-Chlorophenyl)-4-(cyclopropylmethyl)-5-(1-methyl-1H-benzo[d]imidazol-2-yl)-3-oxomorpholin-2-yl)acetic acid] was tested, and the IC50 was 39.5 µM. Compound `Cc1cccc([C@H]2OC(CC(=O)O)C(=O)N(CC3CC3)[C@@H]2c2ccc(Cl)cc2)c1` (single isomer, unassigned) [Example 103] has an IC50 of 3.4 µM. Compound `O=C(O)C[C@H]1O[C@H](c2cccc(Cl)c2)[C@@H](c2ccc(Cl)cc2)N(C2CCCCC2)C1=O` [Example 17, 2-((2R,5R,6R)-6-(3-Chlorophenyl)-5-(4-chlorophenyl)-4-cyclohexyl-3-oxomorpholin-2-yl)acetic acid] has an IC50 of 0.2 µM. `O=C(O)CC1O[C@H](c2cccc(Cl)c2)[C@@H](c2ccc(C(F)(F)F)nc2)N(CC2CC2)C1=O` (single isomer, unassigned) [Example 82] was tested, and the IC50 was 30 µM. Compound `COc1ccc([C@@H]2[C@@H](c3cccc(Cl)c3)OC(CC(=O)O)C(=O)N2CC2CC2)cc1` (single isomer, unassigned) [Example 76] has an IC50 of 1.4 µM. Work on `CCN1C(=O)[C@@H](CC(=O)O)O[C@H](c2cccc(Cl)c2)[C@H]1c1ccc(Cl)cc1` [Example 44, 2-((2R,5R,6R)-6-(3-Chlorophenyl)-5-(4-chlorophenyl)-4-ethyl-3-oxomorpholin-2-yl)acetic acid] yielded an IC50 of 0.9 µM. Work on `COc1cccc([C@H]2OC(CC(=O)O)C(=O)N(CC3CC3)[C@@H]2c2ccc(Cl)cc2)c1` (single isomer, unassigned) [Example 89] yielded an IC50 of 6.1 µM. With `C[C@H](c1ccccc1)N1C(=O)[C@@H](CC(=O)O)O[C@H](c2cccc(Cl)c2)[C@H]1c1ccc(Cl)cc1` [Example 24, 2-((2R,5R,6R)-6-(3-Chlorophenyl)-5-(4-chlorophenyl)-3-oxo-4-((R)-1-phenylethyl)morpholin-2-yl)acetic acid] the IC50 was 1 µM. For `O=C(O)CC1O[C@H](c2cccc(Cl)c2)[C@@H](c2ccc(Br)cc2)N(CC2CC2)C1=O` (single isomer, unassigned) [Example 68], the IC50 was 14.2 µM. With `O=C(O)C[C@@H]1O[C@H](c2cccc(Cl)c2)[C@@H](c2ccc(F)cc2)N(CC2CC2)C1=O` [Example 56, 2-((2S,5R,6R)-6-(3-Chlorophenyl)-4-(cyclopropylmethyl)-5-(4-fluorophenyl)-3-oxomorpholin-2-yl)acetic acid] the IC50 was 0.7 µM. Compound `C=CCN1C(=O)[C@@H](CC(=O)O)O[C@H](c2cccc(Cl)c2)[C@H]1c1ccc(Cl)cc1` [Example 46, 2-((2R,5R,6R)-4-Allyl-6-(3-chlorophenyl)-5-(4-chlorophenyl)-3-oxomorpholin-2-yl)acetic acid] has an IC50 of 0.8 µM. With `CS(=O)(=O)c1cc(Cl)cc([C@H]2O[C@H](CC(=O)O)C(=O)N(CC3CC3)[C@@H]2c2ccc(Cl)cc2)c1` (single isomer, unassigned) [Example 110] the IC50 was 3.7 µM. With `O=C(O)C[C@H]1O[C@H](c2cccc(Cl)c2)[C@@H](c2ccc(F)cc2)N(CC2CC2)C1=O` [Example 64, 2-((2R,5R,6R)-6-(3-Chlorophenyl)-4-(cyclopropylmethyl)-5-(4-fluorophenyl)-3-oxomorpholin-2-yl)acetic acid] the IC50 was 1.5 µM. For `O=C(O)C[C@@H]1O[C@H](c2cccc(Cl)c2)[C@@H](c2ccc(Cl)cc2)N(CC2CCCC2)C1=O` [Example 29, 2-((2S,5R,6R)-6-(3-Chlorophenyl)-5-(4-chlorophenyl)-4-(cyclopentylmethyl)-3-oxomorpholin-2-yl)acetic acid], the IC50 was 0.3 µM. Compound `C[C@H](C1CCC1)N1C(=O)[C@@H](CC(=O)O)O[C@H](c2cccc(Cl)c2)[C@H]1c1ccc(Cl)cc1` [Example 20, 2-((2R,5R,6R)-6-(3-Chlorophenyl)-5-(4-chlorophenyl)-4-((R)-1-cyclobutylethyl)-3-oxomorpholin-2-yl)acetic acid] has an IC50 of 0.3 µM. With `COc1cncc([C@H]2OC(CC(=O)O)C(=O)N(CC3CC3)[C@@H]2c2ccc(Cl)cc2)c1` (single isomer, unassigned) [Example 92] the IC50 was 19.5 µM. With `O=C(O)C[C@H]1O[C@H](c2cc(Cl)cc(-c3cncnc3)c2)[C@@H](c2ccc(Cl)cc2)N(CC2CC2)C1=O` (single isomer, unassigned) [Example 108] the IC50 was 4.3 µM. `Cn1c([C@@H]2[C@@H](c3cccc(Cl)c3)O[C@H](CC(=O)O)C(=O)N2CC2CC2)nc2ccccc21.Cn1c([C@H]2[C@H](c3cccc(Cl)c3)O[C@@H](CC(=O)O)C(=O)N2CC2CC2)nc2ccccc21` (mixture of isomers) [Example 6, 2-((2R,5R,6R)-6-(3-Chlorophenyl)-4-(cyclopropylmethyl)-5-(1-methyl-1H-benzo[d]imidazol-2-yl)-3-oxomorpholin-2-yl)acetic acid and 2-((2S,5S,6S)-6-(3-Chlorophenyl)-4-(cyclopropylmethyl)-5-(1-methyl-1H-benzo[d]imidazol-2-yl)-3-oxomorpholin-2-yl)acetic acid] was tested, and the IC50 was 46.7 µM. `O=C(O)CC1O[C@H](c2cc(Cl)cc(Br)c2)[C@@H](c2ccc(Cl)cc2)N(CC2CC2)C1=O` (single isomer, unassigned) [Example 105] gave an IC50 of 0.3 µM. `CC(C)c1ccc([C@@H]2[C@@H](c3cccc(Cl)c3)O[C@H](CC(=O)O)C(=O)N2CC2CC2)cc1` [Example 66, 2-((2R,5R,6R)-6-(3-Chlorophenyl)-4-(cyclopropylmethyl)-5-(4-isopropylphenyl)-3-oxomorpholin-2-yl)acetic acid] showed an IC50 of 13.5 µM. `O=C(O)CC1O[C@H](c2cc(F)cc(Cl)c2)[C@@H](c2ccc(Cl)cc2)N(CC2CC2)C1=O` (single isomer, unassigned) [Example 83] gave an IC50 of 0.3 µM. `O=C(O)C[C@@H]1O[C@H](c2cccc(Cl)c2)[C@@H](c2nc3ccccc3s2)N(CC2CC2)C1=O` (racemic) [Example 3, 2-((2S,5S,6R)-5-(Benzo[d]thiazol-2-yl)-6-(3-chlorophenyl)-4-(cyclopropylmethyl)-3-oxomorpholin-2-yl)acetic acid and 2-((2R,5R,6S)-5-(Benzo[d]thiazol-2-yl)-6-(3-chlorophenyl)-4-(cyclopropylmethyl)-3-oxomorpholin-2-yl)acetic acid] gave an IC50 of 23.5 µM. `COc1ccc([C@@H]2[C@@H](c3cccc(Cl)c3)OC(CC(=O)O)C(=O)N2CC2CC2)cn1` (single isomer, unassigned) [Example 73] gave an IC50 of 11.6 µM. Compound `O=C(O)C[C@H]1O[C@H](c2cccc(Cl)c2)[C@@H](c2ccc(Cl)cc2F)N(CC2CC2)C1=O` (single isomer, unassigned) [Example 62] has an IC50 of 0.9 µM. In the case of `O=C(O)C[C@H]1O[C@H](c2cccc(Cl)c2)[C@@H](c2ccccc2)N(CC2CC2)C1=O` [Example 63, 2-((2R,5R,6R)-6-(3-Chlorophenyl)-4-(cyclopropylmethyl)-3-oxo-5-phenylmorpholin-2-yl)acetic acid], the IC50 is reported as 9.1 µM. With `CC[C@H](C(=O)OC(C)(C)C)N1C(=O)[C@@H](CC(=O)O)O[C@H](c2cccc(Cl)c2)[C@H]1c1ccc(Cl)cc1` (single isomer, unassigned) [Example 33] the IC50 was 1.1 µM. Work on `O=C(O)C[C@@H]1O[C@H](c2cc(Cl)cc(-c3cn[nH]c3)c2)[C@@H](c2ccc(Cl)cc2)N(CC2CC2)C1=O` (single isomer, unassigned) [Example 107] yielded an IC50 of 3.8 µM. For `CS(=O)(=O)c1cc(Cl)cc([C@H]2O[C@@H](CC(=O)O)C(=O)N(CC3CC3)[C@@H]2c2ccc(Cl)cc2)c1` (single isomer, unassigned) [Example 111], the IC50 was 2.3 µM. `O=C(O)CC1O[C@H](c2ccc(F)c(Cl)c2)[C@@H](c2ccc(Cl)cc2)N(CC2CC2)C1=O` (single isomer, unassigned) [Example 94] showed an IC50 of 0.6 µM. Compound `C[C@@H](c1ccccc1)N1C(=O)[C@@H](CC(=O)O)O[C@H](c2cccc(Cl)c2)[C@H]1c1ccc(Cl)cc1` [Example 26, 2-((2R,5R,6R)-6-(3-Chlorophenyl)-5-(4-chlorophenyl)-3-oxo-4-((S)-1-phenylethyl)morpholin-2-yl)acetic acid] has an IC50 of 1.5 µM. `C[C@@H](c1ccccc1)N1C(=O)[C@H](CC(=O)O)O[C@H](c2cccc(Cl)c2)[C@H]1c1ccc(Cl)cc1` [Example 27, 2-((2S,5R,6R)-6-(3-Chlorophenyl)-5-(4-chlorophenyl)-3-oxo-4-((S)-1-phenylethyl)morpholin-2-yl)acetic acid] gave an IC50 of 0.6 µM. `C[C@@H](C1CCC1)N1C(=O)[C@@H](CC(=O)O)O[C@H](c2cccc(Cl)c2)[C@H]1c1ccc(Cl)cc1` [Example 22, 2-((2R,5R,6R)-6-(3-Chlorophenyl)-5-(4-chlorophenyl)-4-((S)-1-cyclobutylethyl)-3-oxomorpholin-2-yl)acetic acid] gave an IC50 of 0.5 µM. `O=C(O)CC1O[C@H](c2cccc(Cl)c2)[C@@H](c2ccc(Cl)cc2Br)N(CC2CC2)C1=O` (single isomer, unassigned) [Example 79] was tested, and the IC50 was 70.2 µM.
